Counter-ions that a name gives are not always drawn.
Legend:
HCT116 [1] = experiment: efficacy (fitted maximal change in viability relative to DMSO control); higher = less cytotoxic (negative = loss of viability); settings: 48 h
HCT116 [2] = experiment: AC50 cell viability (CellTiter-Glo); higher = less potent; settings: 48 h
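Throughout, for AC50 cell viability (CellTiter-Glo): HCT116 colorectal carcinoma cells screened at five concentrations per compound, luminescent viability scaled between DMSO wells and empty wells on each plate, curves fitted per compound.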
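Throughout, for efficacy (fitted maximal change in viability relative to DMSO control): Luminescence-based viability readout, five doses per compound, normalized against on-plate DMSO and empty-well controls, followed by dose-response curve fitting for every drug.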

Row | SMILES | efficacy (HCT116 [1]) [%] | AC50 cell viability (HCT116 [2]) [µM]
1 | CCCCc1nc2cc(/C=C/C(=O)NO)ccc2n1CCN(CC)CC [Pracinostat] | -86.8 | 0.372
2 | Clc1ccccc1C(c1ccccc1)(c1ccccc1)n1ccnc1 [Clotrimazole] | -81.6 | 20.9
3 | ClC1=CC=C(CCCOC/2=N/NC(=O)C(=C2NCC3=CN=CC=C3)/Br)C=C1 [Parogrelil] | -86.2 | 18.6
4 | N#Cc1ccc2c(c1)CN([S+](=O)([O-])c1cccs1)[C@H](Cc1ccccc1)CN2Cc1cnc[nH]1 | -73.3 | 0.417
5 | CCc1nc(-c2cccc(C)c2)c(-c2ccnc(NC(=O)c3ccccc3)c2)s1 [TAK-715] | -72.7 | 26.3
6 | CCOC(=O)c1c(CSc2ccccc2)n(C)c2cc(Br)c(O)c(CN(C)C)c12 [Arbidol] | -75.8 | 14.8
7 | COc1cc(N2CCC(N(C)C)CC2)ccc1Nc1ncc(Cl)c(Nc2ccccc2P(C)(C)=O)n1 | -87.7 | 0.742
8 | CC1(C)CCC2(CC1)N[C@@H](C(=O)N[C@@H]1CC[C@@H](C(N)=O)OC1)[C@H](c1ccnc(Cl)c1F)[C@]21C(=O)Nc2cc(Cl)ccc21 [Milademetan] | -129 | 4.02
9 | CN1CCN(CC1)C2=CC=C(NC3=NC=C4\C=C(\C#N)C(=O)N(C5CCCC5)C4=N3)C=C2 | -77.1 | 1.32
10 | CNCc1ccc(-c2cc(-c3nc(-c4ccc([S+](=O)([O-])C(C)C)cc4)cnc3N)on2)cc1 [Berzosertib] | -63 | 10.5
11 | CC(=O)Nc1ccc([C@H](C)C(=O)Nc2ncc(C(C)C)s2)cc1 | -59.3 | 2.09
12 | Nc1ccc(F)cc1NC(=O)c1ccc(CNC(=O)/C=C/c2cccnc2)cc1 [Chidamide] | -90.4 | 5.9
13 | c1ccc2c(-c3cnn4cc(-c5ccc(N6CCNCC6)cc5)cnc34)ccnc2c1 | -104 | 2.35
14 | NC(=O)c1cccc2cn(-c3ccc([C@@H]4CCCNC4)cc3)nc12 [Niraparib] | -92 | 18.6
15 | CN\1C(=O)/C(=C(\N=C1NC[C@@H](N)CC2=CC=CC=C2)C3=CC=NC=C3)C4=CC5=C(C=CC=C5)C=C4 [AMG-548] | -101 | 20.9
16 | CC(=O)C\1=C(/C)C2=CN=C(NC3=CC=C(C=N3)N4CCNCC4)N=C2N(C5CCCC5)C1=O [Palbociclib] | -109 | 16.6
17 | C\C1=C(\[C@@H](OC2=C1C=CC(=C2)O)C3=CC=C(OCCN4CCCCC4)C=C3)C5=CC=C(O)C=C5 [Acolbifene] | -94.9 | 18.6
18 | CN1CCN(c2ncc(-c3cc(Cl)cc(Cl)c3Cl)c(N)n2)CC1 [Sipatrigine] | -74.6 | 18.6

Row | SMILES | efficacy (HCT116 [1]) [%] | AC50 cell viability (HCT116 [2]) [µM]
19 | Cc1cnc(Nc2ccc(OCCN3CCCC3)cc2)nc1Nc1cccc([S+](=O)([O-])NC(C)(C)C)c1 | -109 | 2.63
20 | O=C(NCC(=O)N1CC[C@H](NC2CCC(O)(c3ccc(-c4ncccn4)cn3)CC2)C1)c1cccc(C(F)(F)F)c1 (some centres not stated) | -47 | 5.9
21 | NC(=O)c1cccc2nc(-c3ccc([C@H]4CCCN4)cc3F)[nH]c12 | -67.3 | 10.5
22 | NC/1=N/C(=O)C/2=C(/NCC3CN(CN23)C4=CC=C(C=C4)C(=O)N[C@@H](CCC(O)=O)C(O)=O)N1 (some centres not stated) [Modufolin] | -92 | 8.33
23 | C[N]1C=C(C=N1)C2=C3\C=N/NC(=O)C4=C3C(=CC(=C4)NC(=O)[C@H](N)C5CCCCC5)[NH]2 | -67.8 | 16.6
24 | N#Cc1c(NC(=O)c2cccc3ccccc23)sc2c1CCCC2 [TCS-JNK-5a] | -61.6 | 0.417
25 | CC(C)[C@]12O[C@H]1[C@@H]3O[C@@]34[C@@]5(C)CC\C6=C(COC6=O)/[C@@H]5C[C@@H]7O[C@]47[C@@H]2O [Triptolide] | -52.7 | 0.0235
26 | C[C@@H](NC(=O)c1ncnc(N)c1Cl)c1ncc(C(=O)Nc2cc(C(F)(F)F)c(Cl)cn2)s1 [MLN 2480] | -95.4 | 13.2
27 | FC(F)(F)C1=CC=C2C(SCCCCCO\C3=C\O\C(CN4CCOCC4)=C/C3=O)=CC=NC2=C1 | -67.7 | 18.6
28 | NC(=O)N1CCC(CC(=O)N2CCC([C@H]3c4ncc(Br)cc4CCc4cc(Cl)cc(Br)c43)CC2)CC1 [Lonafarnib] | -100 | 18.6
29 | CCCCCCCc1ccc(CCc2cccc(O)c2C(=O)O)cc1 [MG-149] | -42.3 | 18.6
30 | COCCn1c2c([n+](Cc3cnccn3)c1C)C(=O)c1ccccc1C2=O [Sepantronium bromide] | -93.8 | 0.00833
31 | COc1cccc2c1C(=O)c1c(O)c3c(c(O)c1C2=O)C[C@@](O)(/C(CO)=N/NC(=O)CCCCCN1C(=O)C=CC1=O)C[C@@H]3O[C@H]1C[C@H](N)[C@H](O)[C@H](C)O1 [Aldoxorubicin hydrochlorid] | -73.6 | 2.35
32 | Nc1nc2cc(-c3ccc4ncc(C(=O)N5CCOCC5)n4c3)ccc2o1 [Serabelisib] | -53.2 | 4.68
33 | COc1cc(NCc2ccc3nc(N)nc(N)c3c2C)cc(OC)c1OC [Trimetrexate] | -77.8 | 1.05
34 | CN(C)CCC=C1C2=C(C=CC=C2)\C=C/C3=C1C=CC=C3 [Cyclobenzaprine hydrochloride] | -92.3 | 18.6
35 | O=C(Nc1ccccc1Br)N[C@@H]1CCN(c2ccc(C(F)(F)F)cn2)C1 | -39.8 | 16.6
36 | Cc1cc(Cl)ccc1OCCCC(=O)NO [Droxinostat] | -57.1 | 20.9

Source: the supplement of paper PMC10290057
